From PubChem BioAssay AID2060488 (Molecular Pharmacology Branch, DTP, NCI, 2025)

Test system: 966289-007-R4-J1-PDC complex spheroid viability
Test: Anticancer human tumor 966289-007-R4-J1-PDC patient-derived pancreatic adenocarcinoma cell line growth inhibition [GQUAD]
Details: for IC50: curve of first compound; for viability, T/C: stronger effect = lower value
Description: DNA G-quadruplex Stabilizer Agents in Combinations in Complex Spheroids
A high-throughput screen of multi-cell type tumor spheroids was designed to identify active combinations of DNA G-quadruplex stabilizer agents and targeted small molecules. Complex spheroids include a stromal component modeled by human endothelial cells (HUVEC) and fibroblasts modeled by human mesenchymal stem cells (MSCs). The concentration ranges selected for each drug and investigational agent were based upon clinically achievable concentrations if the clinical Cmax of the agent was known.
Compounds. The drugs and investigational agents: pidnarulex (CX-5461; NSC782164), APTO-253 (NSC789042), BRACO-19 (NSC847499), peposertib (NSC802822), ceralasertib (NSC780249), elimusertib (NSC800525), camonsertib (NSC841442), AZD-1390 (NSC803789), olaparib (NSC753686), talazoparib (NSC767125), ART-558 (NSC835418), sotorasib (NSC818433), MRTX-1133 (NSC836407), SN-38 (NSC673596), topotecan (NSC609699), etoposide (NSC141540), doxorubicin (NSC123127), gemcitabine (NSC613327), 5-fluorouracil (NSC19893), paclitaxel (NSC125973), vemurafenib (NSC761431), panobinostat (NSC761190), R-306465 (JNJ-16241199; NSC773264), adavosertib (NSC754352), TP-3654 (NSC805149), carboplatin (NSC241240), KSQ-4279 (NSC840948), and staurosporine (NSC755774) were obtained from the National Cancer Institute (NCI) Developmental Therapeutics Program Chemical Repository (34). The FDA-approved anticancer drug set is available from the NCI Developmental Therapeutics Program. […] The stock solutions were prepared in dimethyl sulfoxide (DMSO, Sigma-Aldrich, St. Louis, MO, cat. D2650) at 800-fold the tested concentration and stored at -70 degrees C prior to their use. All drugs and investigational agents were tested over a range starting from a high concentration at or near the clinical Cmax and decreasing in half-log increments. If the clinical Cmax for an agent had not been determined, the highest concentration tested was 10 microM.
2.3 Cell Culture. All cells were maintained in an incubator at 37 degrees C and 5% CO2 with 95% humidity. The PDC lines were cultured according to standard operating procedures established by the NCI PDMR. All PDCs were thawed and cultured in Matrigel-coated flasks prepared with a working solution of 1X Ham's F-12 nutrient mix, without supplementation (Invitrogen, cat. 11765054), 100 U/mL penicillin-streptomycin (Invitrogen, cat. 15140122), and 2.5% Matrigel (Corning Inc., cat. 354248) for the first three passages. The 857933-349-R-J2-PDC line was cultured in 6C/Colon 1B media, which includes advanced DMEM/F-12 (Thermo Fisher Scientific, cat. 12634028), 10 mM HEPES (Thermo Fisher Scientific, cat. 15630080), 1X GlutaMAX supplement (Thermo Fisher Scientific, cat. 35050061), 0.1 mg/mL primocin (InvivoGen, cat. ant-pm-2), 10% defined fetal bovine serum, heat inactivated (HyClone Laboratories Inc., cat. SH30070.03HI), 50% L-WRN conditioned media (ATCC, cat. CRL-3276), 1.25 mM N-Acetyl-L-cysteine (Sigma-Aldrich, cat. A9165), 10 mM nicotinamide (Sigma-Aldrich, cat. N0636), 1X B-27 supplement (Thermo Fisher Scientific, cat. 17504044), 1X N-2 supplement (Thermo Fisher Scientific, cat. 17502048), 10 microM Y-27632 dihydrochloride (Tocris Bioscience, cat. 1254), and 50 ng/mL human EGF recombinant protein (Thermo Fisher Scientific, cat. PHG0311). The 485176-168-R4-J1-PDC line was cultured in Panc media, which includes all 6C/Colon 1B media components plus 100 ng/mL human FGF-10 (Thermo Fisher Scientific, cat. 100-26), 500 nM SB-431542 (Selleckchem, cat. S1067), and gastrin (Tocris, cat. 3006).
[…]

[1] = second compound 0.0316 µM, first compound 0.0316 µM
[2] = second compound 0.0316 µM, first compound 0.316 µM
[3] = second compound 0.1 µM, first compound 0.0316 µM
[4] = second compound 0.1 µM, first compound 0.316 µM
[5] = second compound 0.316 µM, first compound 0.0316 µM
[6] = second compound 0.316 µM, first compound 0.316 µM
[7] = second compound 1 µM, first compound 0.0316 µM
[8] = second compound 1 µM, first compound 0.316 µM
[9] = second compound 3.16 µM, first compound 0.0316 µM
[10] = second compound 3.16 µM, first compound 0.316 µM
[11] = second compound 10 µM, first compound 0.0316 µM
[12] = second compound 10 µM, first compound 0.316 µM
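Further: spheroids exposed to the agents for seven days before readout.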
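Wherever viability, T/C is given: percent viability relative to DMSO vehicle control wells taken as 100%.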

Cn1ncnc1[C@H]1c2n[nH]c(=O)c3cc(F)cc(c23)N[C@@H]1c1ccc(F)cc1 + Cc1[nH]c2ccc(F)cc2c1-c1nc2c3cccnc3c3ncccc3c2[nH]1
IC50 (second compound 0.0316 µM): 101 nM | IC50 (second compound 0.1 µM): 89.8 nM | IC50 (second compound 0.316 µM): 105 nM | IC50 (second compound 1 µM): 127 nM | IC50 (second compound 3.16 µM): 76.3 nM | IC50 (second compound 10 µM): 63.6 nM | viability, T/C (second compound 0.0316 µM, first compound 0.000999 µM): 108% | viability, T/C (second compound 0.0316 µM, first compound 0.00316 µM): 95.8% | viability, T/C (second compound 0.0316 µM, first compound 0.00999 µM): 105% | viability, T/C [1]: 96.8% | viability, T/C (second compound 0.0316 µM, first compound 0.0999 µM): 50.3% | viability, T/C [2]: 21% | viability, T/C (second compound 0.1 µM, first compound 0.000999 µM): 101% | viability, T/C (second compound 0.1 µM, first compound 0.00316 µM): 99.4% | viability, T/C (second compound 0.1 µM, first compound 0.00999 µM): 106% | viability, T/C [3]: 99.3% | viability, T/C (second compound 0.1 µM, first compound 0.0999 µM): 44.9% | viability, T/C [4]: 20% | viability, T/C (second compound 0.316 µM, first compound 0.000999 µM): 101% | viability, T/C (second compound 0.316 µM, first compound 0.00316 µM): 107% | viability, T/C (second compound 0.316 µM, first compound 0.00999 µM): 108% | viability, T/C [5]: 105% | viability, T/C (second compound 0.316 µM, first compound 0.0999 µM): 51.5% | viability, T/C [6]: 18.6% | viability, T/C (second compound 1 µM, first compound 0.000999 µM): 101% | viability, T/C (second compound 1 µM, first compound 0.00316 µM): 103% | viability, T/C (second compound 1 µM, first compound 0.00999 µM): 112% | viability, T/C [7]: 102% | viability, T/C (second compound 1 µM, first compound 0.0999 µM): 58.4% | viability, T/C [8]: 18.6% | viability, T/C (second compound 3.16 µM, first compound 0.000999 µM): 105% | viability, T/C (second compound 3.16 µM, first compound 0.00316 µM): 105% | viability, T/C (second compound 3.16 µM, first compound 0.00999 µM): 110% | viability, T/C [9]: 92.8% | viability, T/C (second compound 3.16 µM, first compound 0.0999 µM): 36.9% | viability, T/C [10]: 12.1% | viability, T/C (second compound 10 µM, first compound 0.000999 µM): 106% | viability, T/C (second compound 10 µM, first compound 0.00316 µM): 105% | viability, T/C (second compound 10 µM, first compound 0.00999 µM): 109% | viability, T/C [11]: 88.3% | viability, T/C (second compound 10 µM, first compound 0.0999 µM): 25.3% | viability, T/C [12]: 11.6%

O=C(c1cc(Cc2n[nH]c(=O)c3ccccc23)ccc1F)N1CCN(C(=O)C2CC2)CC1 + Cc1[nH]c2ccc(F)cc2c1-c1nc2c3cccnc3c3ncccc3c2[nH]1
IC50 (second compound 0.0316 µM): 4590 nM | IC50 (second compound 0.1 µM): 4390 nM | IC50 (second compound 0.316 µM): 3300 nM | IC50 (second compound 1 µM): 4380 nM | IC50 (second compound 3.16 µM): 2990 nM | IC50 (second compound 10 µM): 2790 nM | viability, T/C [1]: 113% | viability, T/C (second compound 0.0316 µM, first compound 0.1 µM): 102% | viability, T/C [2]: 111% | viability, T/C (second compound 0.0316 µM, first compound 1 µM): 101% | viability, T/C (second compound 0.0316 µM, first compound 3.16 µM): 68.6% | viability, T/C (second compound 0.0316 µM, first compound 10 µM): 11.5% | viability, T/C [3]: 107% | viability, T/C (second compound 0.1 µM, first compound 0.1 µM): 103% | viability, T/C [4]: 111% | viability, T/C (second compound 0.1 µM, first compound 1 µM): 106% | viability, T/C (second compound 0.1 µM, first compound 3.16 µM): 64.1% | viability, T/C (second compound 0.1 µM, first compound 10 µM): 14.8% | viability, T/C [5]: 93% | viability, T/C (second compound 0.316 µM, first compound 0.1 µM): 107% | viability, T/C [6]: 106% | viability, T/C (second compound 0.316 µM, first compound 1 µM): 108% | viability, T/C (second compound 0.316 µM, first compound 3.16 µM): 51.4% | viability, T/C (second compound 0.316 µM, first compound 10 µM): 15% | viability, T/C [7]: 95.2% | viability, T/C (second compound 1 µM, first compound 0.1 µM): 101% | viability, T/C [8]: 108% | viability, T/C (second compound 1 µM, first compound 1 µM): 109% | viability, T/C (second compound 1 µM, first compound 3.16 µM): 64.5% | viability, T/C (second compound 1 µM, first compound 10 µM): 13.1% | viability, T/C [9]: 104% | viability, T/C (second compound 3.16 µM, first compound 0.1 µM): 110% | viability, T/C [10]: 111% | viability, T/C (second compound 3.16 µM, first compound 1 µM): 105% | viability, T/C (second compound 3.16 µM, first compound 3.16 µM): 47.2% | viability, T/C (second compound 3.16 µM, first compound 10 µM): 7.55% | viability, T/C [11]: 104% | viability, T/C (second compound 10 µM, first compound 0.1 µM): 103% | viability, T/C [12]: 112% | viability, T/C (second compound 10 µM, first compound 1 µM): 99.8% | viability, T/C (second compound 10 µM, first compound 3.16 µM): 44% | viability, T/C (second compound 10 µM, first compound 10 µM): 4.64%
